Experimental data published in ChEMBL document CHEMBL3046586, “Lethal and sublethal effects of buprofezin and imidacloprid on Bemisia tabaci (Hemiptera: Aleyrodidae)” (2011).
Values after ≈ are worked out from the molar mass of the structure shown. Active and inactive are the calls of the source. The rule behind the calls is not given here.

Assays:
Bemisia tabaci [1] = experiment: Insecticidal activity against Bemisia tabaci (sweet potato whitefly) at first instar larvae stage in compound treated cucumber leaves assessed as mortality measured as dry larvae and detached from leaf at 25 +/- 1 degC, 70 +/- 5% RH after 7 days; assay type: functional; details: 168 h
Bemisia tabaci [2] = experiment: Insecticidal activity against adult female Bemisia tabaci (sweet potato whitefly) in compound treated cucumber leaves assessed as laid eggs at LC25 concentration at 25 +/- 1 degC, 70 +/- 5% RH after 48 hr; assay type: functional, organism-based
Bemisia tabaci [3] = experiment: Insecticidal activity against Bemisia tabaci (sweet potato whitefly) at third instar larvae stage in compound treated cucumber leaves assessed as mortality measured as dry larvae and detached from leaf at 25 +/- 1 degC, 70 +/- 5% RH after 7 days; assay type: functional; details: 168 h
Bemisia tabaci [4] = experiment: Insecticidal activity against Bemisia tabaci (sweet potato whitefly) at egg stage in compound treated cucumber leaves assessed as egg hatch at 2000 ppm at 25 +/- 1 degC, 70 +/- 5% RH after 10 days (reference value: 91%); assay type: functional
Bemisia tabaci [5] = experiment: Insecticidal activity against adult female Bemisia tabaci (sweet potato whitefly) in compound treated cucumber leaves assessed as mortality at 8000 ppm at 25 +/- 1 degC, 70 +/- 5% RH after 48 hr (reference value: 9.3%); assay type: functional
Bemisia tabaci [6] = experiment: Insecticidal activity against adult female Bemisia tabaci (sweet potato whitefly) in compound treated cucumber leaves assessed as mortality at 10000 ppm at 25 +/- 1 degC, 70 +/- 5% RH after 48 hr (reference value: 9.3%); assay type: functional
Bemisia tabaci [7] = experiment: Insecticidal activity against Bemisia tabaci (sweet potato whitefly) at egg stage in compound treated cucumber leaves assessed as egg hatch at 10000 ppm at 25 +/- 1 degC, 70 +/- 5% RH after 10 days (reference value: 91%); assay type: functional
Bemisia tabaci [8] = experiment: Insecticidal activity against male Bemisia tabaci (sweet potato whitefly) in compound treated cucumber leaves assessed as mortality at 2000 ppm at 25 +/- 1 degC, 70 +/- 5% RH after 48 hr (reference value: 6.3%); assay type: functional
Bemisia tabaci [9] = experiment: Insecticidal activity against Bemisia tabaci (sweet potato whitefly) at second instar larvae stage in compound treated cucumber leaves assessed as mortality measured as dry larvae and detached from leaf at 25 +/- 1 degC, 70 +/- 5% RH after 7 days; assay type: functional; details: 168 h
Bemisia tabaci [10] = experiment: Insecticidal activity against male Bemisia tabaci (sweet potato whitefly) in compound treated cucumber leaves assessed as mortality at 10000 ppm at 25 +/- 1 degC, 70 +/- 5% RH after 48 hr (reference value: 6.3%); assay type: functional
Bemisia tabaci [11] = experiment: Insecticidal activity against Bemisia tabaci (sweet potato whitefly) at egg stage in compound treated cucumber leaves assessed as egg hatch at 8000 ppm at 25 +/- 1 degC, 70 +/- 5% RH after 10 days (reference value: 91%); assay type: functional
Bemisia tabaci [12] = experiment: Insecticidal activity against Bemisia tabaci (sweet potato whitefly) at pupae stage in compound treated cucumber leaves assessed as mortality measured as dry larvae and detached from leaf at 25 +/- 1 degC, 70 +/- 5% RH after 7 days; assay type: functional; details: 168 h
Bemisia tabaci [13] = experiment: Insecticidal activity against adult female Bemisia tabaci (sweet potato whitefly) in compound treated cucumber leaves assessed as mortality at 2000 ppm at 25 +/- 1 degC, 70 +/- 5% RH after 48 hr (reference value: 9.3%); assay type: functional
Bemisia tabaci [14] = experiment: Insecticidal activity against adult female Bemisia tabaci (sweet potato whitefly) in compound treated cucumber leaves assessed as egg hatch at LC25 concentration at 25 +/- 1 degC, 70 +/- 5% RH after 48 hr (reference value: […]); assay type: functional
Bemisia tabaci [15] = experiment: Insecticidal activity against male Bemisia tabaci (sweet potato whitefly) in compound treated cucumber leaves assessed as mortality at 8000 ppm at 25 +/- 1 degC, 70 +/- 5% RH after 48 hr (reference value: 6.3%); assay type: functional
Bemisia tabaci [16] = experiment: Insecticidal activity against adult female Bemisia tabaci (sweet potato whitefly) in compound treated cucumber leaves assessed as offspring sex ratio at LC25 concentration at 25 +/- 1 degC, 70 +/- 5% RH after 48 hr (Rvb Female/Female + male)= 0.60 no unit); assay type: functional
Bemisia tabaci [17] = experiment: Insecticidal activity against adult female Bemisia tabaci (sweet potato whitefly) in compound treated cucumber leaves assessed as longevity at LC25 concentration at 25 +/- 1 degC, 70 +/- 5% RH after 48 hr (reference value: 8.31 days); assay type: functional
Bemisia tabaci [18] = experiment: Insecticidal activity against male Bemisia tabaci (sweet potato whitefly) in compound treated cucumber leaves assessed as mortality after 48 hr; assay type: functional
Bemisia tabaci [19] = experiment: Insecticidal activity against adult female Bemisia tabaci (sweet potato whitefly) in compound treated cucumber leaves assessed as mortality after 48 hr; assay type: functional
Bemisia tabaci [20] = experiment: Insecticidal activity against Bemisia tabaci (sweet potato whitefly) at egg stage in compound treated cucumber leaves assessed as mortality measured as failure to hatch at 25 +/- 1 degC, 70 +/- 5% RH after 10 days; assay type: functional; details: 240 h

In the case of `CC(C)N1C(=O)N(c2ccccc2)CS/C1=N\C(C)(C)C` [BUPROFEZIN], the LC50 (Bemisia tabaci [1]) is reported as 0.99 µg/mL (≈ 3.24 µM), the Activity (Bemisia tabaci [2]) is reported as “Active” and the LC50 (Bemisia tabaci [3]) is reported as 44.7 µg/mL (≈ 146 µM). It also gave an Activity (Bemisia tabaci [4]) of 88%, a mortality at 8000 ppm (Bemisia tabaci [5]) of 8% and a mortality at 10000 ppm (Bemisia tabaci [6]) of 9.3%. For the same compound, the Activity (Bemisia tabaci [7]) was 72%, the mortality at 2000 ppm (Bemisia tabaci [8]) was 11.3% and the LC50 (Bemisia tabaci [9]) was 10.9 µg/mL (≈ 35.8 µM). The mortality at 10000 ppm (Bemisia tabaci [10]) was 19%, the Activity (Bemisia tabaci [11]) was 68% and the LC50 (Bemisia tabaci [12]) was 979 µg/mL (≈ 3210 µM). It also gave a mortality at 2000 ppm (Bemisia tabaci [13]) of 8%, an Activity (Bemisia tabaci [14]) of 66% and a mortality at 8000 ppm (Bemisia tabaci [15]) of 10%. For the same compound, the Ratio (Bemisia tabaci [16]) was 0.5 and the Time (Bemisia tabaci [17]) was 4.85 days.

With `O=[N+]([O-])/N=C1\NCCN1Cc1ccc(Cl)nc1` [IMIDACLOPRID] the LC50 (Bemisia tabaci [1]) was 19.3 µg/mL (≈ 75.5 µM), the Activity (Bemisia tabaci [2]) was “inactive” and the LC50 (Bemisia tabaci [3]) was 335 µg/mL (≈ 1310 µM). The LC50 (Bemisia tabaci [18]) was 11.8 µg/mL (≈ 46.2 µM), the LC50 (Bemisia tabaci [9]) was 85.4 µg/mL (≈ 334 µM) and the LC25 (Bemisia tabaci [19]) was 4.64 ppm. For the same compound, the LC50 (Bemisia tabaci [19]; Bemisia tabaci, 48 h) was 71.6 µg/mL (≈ 280 µM), the LC50 (Bemisia tabaci [20]) was 151 µg/mL (≈ 591 µM) and the LC50 (Bemisia tabaci [12]) was 2850 µg/mL (≈ 11200 µM). It also gave an Activity (Bemisia tabaci [14]) of 87.42%, a Ratio (Bemisia tabaci [16]) of 0.56 and a Time (Bemisia tabaci [17]) of 11.7 days.
